ChEMBL document CHEMBL5653631, “A Potent and Selective ULK1 Inhibitor Suppresses Autophagy and Sensitizes Cancer Cells to Nutrient Stress” (iScience, 2018)

Experiments:
[1] = target: Serine/threonine-protein kinase 26 (Homo sapiens) (UniProt Q9P289); experiment: Inhibition of human recombinant MST4 at 40 nM related to control ULK1
[2] = target: Ephrin type-A receptor 7 (Homo sapiens) (UniProt Q15375); experiment: Inhibition of human recombinant EphA7 at 40 nM related to control ULK1
[3] = target: T1, Serine/threonine-protein kinase Sgk1 (Homo sapiens) (UniProt O00141); experiment: Inhibition of human recombinant SGK1 at 40 nM in presence of ATP by radiometric assay relative to control
T1 sequence (whole entry): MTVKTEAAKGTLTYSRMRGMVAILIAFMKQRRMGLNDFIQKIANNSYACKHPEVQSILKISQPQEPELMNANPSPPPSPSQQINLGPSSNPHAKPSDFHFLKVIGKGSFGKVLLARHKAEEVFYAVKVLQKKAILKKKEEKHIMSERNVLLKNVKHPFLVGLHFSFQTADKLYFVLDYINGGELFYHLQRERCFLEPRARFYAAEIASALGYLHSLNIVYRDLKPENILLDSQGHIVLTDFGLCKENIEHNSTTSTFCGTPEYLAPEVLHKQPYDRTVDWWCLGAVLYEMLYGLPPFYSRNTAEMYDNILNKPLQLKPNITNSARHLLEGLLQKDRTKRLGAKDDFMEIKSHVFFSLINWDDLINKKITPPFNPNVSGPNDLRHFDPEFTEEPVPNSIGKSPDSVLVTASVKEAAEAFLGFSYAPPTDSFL

[4] = target: Macrophage-stimulating protein receptor (Homo sapiens) (UniProt Q04912); experiment: Inhibition of human recombinant RON at 40 nM in presence of ATP by radiometric assay relative to control
[5] = target: T2, Calcium/calmodulin-dependent protein kinase type IV (Homo sapiens) (UniProt Q16566); experiment: Inhibition of human recombinant CaMK4 at 40 nM related to control ULK1
T2 sequence (whole entry): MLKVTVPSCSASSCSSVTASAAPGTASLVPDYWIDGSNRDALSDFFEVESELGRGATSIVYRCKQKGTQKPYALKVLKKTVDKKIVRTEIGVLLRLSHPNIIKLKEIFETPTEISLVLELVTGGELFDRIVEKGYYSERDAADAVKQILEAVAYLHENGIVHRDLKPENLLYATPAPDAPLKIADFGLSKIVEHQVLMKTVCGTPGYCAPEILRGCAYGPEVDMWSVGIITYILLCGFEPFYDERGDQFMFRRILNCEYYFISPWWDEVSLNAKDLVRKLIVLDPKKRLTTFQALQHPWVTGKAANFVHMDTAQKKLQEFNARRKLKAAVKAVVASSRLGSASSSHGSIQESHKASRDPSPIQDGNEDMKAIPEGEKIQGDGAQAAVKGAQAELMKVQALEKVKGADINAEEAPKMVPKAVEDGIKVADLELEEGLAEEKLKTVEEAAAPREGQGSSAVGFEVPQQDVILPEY

[6] = target: Mast/stem cell growth factor receptor Kit (Homo sapiens) (UniProt P10721); experiment: Inhibition of human recombinant KIT at 500 nM in presence of ATP by radiometric assay relative to control
[7] = target: Serine/threonine-protein kinase Chk2 (Homo sapiens) (UniProt O96017); experiment: Inhibition of human recombinant CHK2 at 500 nM related to control ULK1
[8] = target: Activin receptor type-2A (Homo sapiens) (UniProt P27037); experiment: Inhibition of human recombinant ACTR2 at 500 nM in presence of ATP by radiometric assay relative to control
[9] = target: T3, Serine/threonine-protein kinase Nek2 (Homo sapiens) (UniProt P51955); experiment: Inhibition of human recombinant NEK2 at 15 nM related to control ULK1
T3 sequence (whole entry): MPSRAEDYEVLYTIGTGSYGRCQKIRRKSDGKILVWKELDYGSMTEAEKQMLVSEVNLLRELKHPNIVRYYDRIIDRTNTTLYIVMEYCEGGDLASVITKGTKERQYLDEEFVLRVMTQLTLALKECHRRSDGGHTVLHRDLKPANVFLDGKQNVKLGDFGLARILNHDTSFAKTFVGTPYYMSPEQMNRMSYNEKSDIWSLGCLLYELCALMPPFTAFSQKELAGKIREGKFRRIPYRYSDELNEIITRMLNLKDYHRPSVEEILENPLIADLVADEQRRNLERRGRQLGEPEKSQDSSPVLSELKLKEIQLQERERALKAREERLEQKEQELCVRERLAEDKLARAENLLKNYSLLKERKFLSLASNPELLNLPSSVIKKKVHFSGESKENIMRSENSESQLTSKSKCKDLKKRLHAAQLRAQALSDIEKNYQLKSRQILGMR

[10] = target: Interferon-induced, double-stranded RNA-activated protein kinase (Homo sapiens) (UniProt P19525); experiment: Inhibition of human recombinant PKR at 15 nM in presence of ATP by radiometric assay relative to control
[11] = target: T4, Tyrosine-protein kinase ZAP-70 (Homo sapiens) (UniProt P43403); experiment: Inhibition of human recombinant ZAP70 at 15 nM in presence of ATP by radiometric assay relative to control
T4 sequence (whole entry): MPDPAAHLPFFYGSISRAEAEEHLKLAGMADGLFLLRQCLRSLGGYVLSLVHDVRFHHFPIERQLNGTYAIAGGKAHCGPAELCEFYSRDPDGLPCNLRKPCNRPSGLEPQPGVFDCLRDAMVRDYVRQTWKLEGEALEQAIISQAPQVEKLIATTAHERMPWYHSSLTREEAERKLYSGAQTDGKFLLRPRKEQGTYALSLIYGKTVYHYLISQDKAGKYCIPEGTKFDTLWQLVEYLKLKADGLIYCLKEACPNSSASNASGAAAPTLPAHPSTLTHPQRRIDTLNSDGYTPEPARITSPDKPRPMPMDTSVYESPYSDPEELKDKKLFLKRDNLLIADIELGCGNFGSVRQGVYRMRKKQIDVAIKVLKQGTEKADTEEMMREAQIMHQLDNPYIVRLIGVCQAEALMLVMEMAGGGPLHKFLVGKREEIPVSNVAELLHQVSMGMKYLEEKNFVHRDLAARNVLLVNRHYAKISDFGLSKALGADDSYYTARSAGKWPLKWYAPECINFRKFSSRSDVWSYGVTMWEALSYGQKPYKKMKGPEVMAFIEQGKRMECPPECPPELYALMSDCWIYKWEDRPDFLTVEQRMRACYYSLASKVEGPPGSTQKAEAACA

Structure (SMILES): O=C(N[C@@H](C1CC1)C(F)(F)F)c1cc(-c2cnn3cc(-c4ccc(F)cc4)cnc23)cs1
- fold change (FC) [1]: 0
- fold change (FC) [2]: 0
- inhibition [3]: 7%
- inhibition [4]: 0%
- fold change (FC) [5]: 0

Structure (SMILES): CNC(=O)c1ccccc1Oc1nc(Nc2cc(OC)c(OC)c(OC)c2)ncc1Br
- inhibition [6]: 1%
- fold change (FC) [7]: 0
- inhibition [8]: 3%

Structure (SMILES): CC(C)[C@H](NC(=O)c1cc(-c2cnn3cc(-c4ccc(OCCN5CCCCC5)cc4)cnc23)cs1)C(F)(F)F
- fold change (FC) [9]: 0.14
- inhibition [10]: 2%
- inhibition [11]: 0%
